Consider 2 molecules from patent publication US20230123497A1, “NOVEL ANTIBACTERIAL HYDROGELS” (NewSouth Innovations Pty Limited, priority 2020, published 2023).

Several values for one entry are separate records, joined by “and”; a condition that tells them apart may be missing. Identical values can stand only once.

Data set [1] can be described thus: Strain sweep test (SST), linear viscoelastic region. Conditions: hydrogels at 1% w/v, SST at 1 Hz, 0.1% to 100% strain. Format: physicochemical. The method, then:
(§1) Initially, 1 mL of hydrogels were prepared from short peptides 11-13 and 15-19 in glass vials at concentration of 1% w/v. These vials were warmed using a heat gun to transform the hydrogel to the solution phase. Subsequently, 560 μL of the resulting solutions were cast onto the rheometer plate. The other plate was lowered to the measuring position ([…]) and the hydrogel was allowed to stand for 3 hours for the gel to form. The FST was conducted at fixed strain of 0.1% and frequency ranging from 10 Hz to 0.01 Hz. Meanwhile, the strain sweep test (SST) was performed at a frequency of 1 Hz using 0.1% strain to 100% strain. The rheology data were shown as the average of three repeats for each data point.
(§2) The mechanical properties of hydrogels 4 (formed via addition of NaCl or GdL) before and after blue light irradiation were also assessed using an Anton Paar MCR 302 rheometer with a 25 mm stainless parallel plate configuration. Prior to the hydrogel formation, 560 μL of solution phase of short peptide 4 at 1% w/v were transferred onto a rheometer plate. Meanwhile, hydrogel 4, which had been exposed to blue light, was warmed using a heat gun, to provide its solution phase. Subsequently, 560 μL of this solution phase was cast onto the rheometer plate. The other plate was lowered to the measuring position ([…]) and the hydrogel was allowed to stand for 3 hours for the gel to form. The frequency sweep test (FST) was conducted at fixed strain of 0.1% and frequency ranging from 10 Hz to 0.01 Hz. Meanwhile, the SST was performed at a frequency of 1 Hz using 0.1% strain to 100% strain. In addition, the temperature sweep test was conducted to obtain transition glass (Tg) using fixed frequency of 1 Hz and fixed strain of 0.1% with temperature ramping from 25° C. to 90° C. The rheology data were shown as the average of three repeats for each data point.
To observe the structural decay in anthranilamide-based cationic hydrogels, the SST was performed by imposing a non-linear strain. SST provides information about the viscoelastic properties of a hydrogel through determination of its linear viscoelastic region (LVER). […] Here, the LVER reported for each hydrogel represents the deviation of storage modulus (G′) from linearity, known as yield point (γy). Yield points have been reported to reflect a point where the rigidity of a hydrogel starts to weaken.

For a further data set, the system named is S. aureus 38. The experiment in a line: Antibacterial activity of cationic hydrogels, viable count method. In kind it is cell-based, Staphylococcus aureus. The settings on record: hydrogel at 1% w/v in contact with S. aureus, compared to control. The method, then: The antibacterial activity of the anthranilamide-based cationic hydrogels 11-13 and 15-19 was investigated in vitro against S. aureus. The antibacterial activity of anthranilamide-based cationic hydrogel 11 was also investigated in vitro against E. coli.
First, a single colony of S. aureus 38 or E. coli K12 was grown in Luria-Bertani (LB) broth medium at 37° C. overnight. The resulting bacteria were harvested, via centrifugation, to obtain a bacteria pellet which was re-suspended in the same volume of LB medium, twice. The optical density (OD) value of the resulting culture was adjusted to 0.1 at 600 nm in LB (10^8 cfu·mL^−1). This bacteria solution was then further adjusted to 3×10^4 cfu mL^−1. (CFU or cfu=colony-forming unit). Bacteria solutions (1 mL), which contain either 10^8 CFUs/mL or 3×10^4 CFUs/mL, were gently added to hydrogel 11 at 1% w/v with total volume of 1 mL. Anthranilamide-based cationic hydrogels 11-13 and 15-19 (1 mL) were prepared at 1% w/v in glass vials as described above. On top of these pre-formed hydrogels, 1 mL of bacteria solution was carefully cast. […] As a negative control, a bacterial solution in the absence of hydrogel was used. After being incubated at 37° C. for 18 hours, 100 μL of bacteria solution in each vial was taken and subjected to serial dilution using phosphate buffer solution (PBS). 20 μL of each dilution were carefully transferred into nutrient agar plates and incubated for another 18 hours. The following day, bacterial growth inhibition was quantified using the viable count method. The experiment was performed twice in triplicate and multiple sample comparison was performed using one-way ANOVA at p<0.05.

Data set [2] in a line: Hydrogel formation, vial inversion test (critical gel concentration). Format: physicochemical. Further details: key: CG: clear gel; PG: partial gel; OG: opagque gel. The settings on record: cationic peptides 15-19. From the text: (§3) The simplest method to determine whether a suitable hydrogel has formed is to use the vial inversion test. Through visual inspection, a material can be categorised as a solution, viscous solution, partial gel, or solid-like gel. A stable hydrogel needs to be able to hold its weight and/or maintain its shape during this assessment.
(§4) The critical gel concentration (CGC) is defined as the minimum mass of a short peptide required to provide a self-supporting hydrogel per unit volume in the vial inversion test (measured as % w/v).
(§5) Pre-weighed samples of short peptide 4 were prepared in aluminium-covered glass vials and Milli-Q water and 2 equivalents of NaOH (1.0 M) were added to make up concentrations of 1% w/v. The resulting suspensions were vortexed for 5 minutes to provide clear yellow solutions with pH 11.
To create a high ionic strength environment, 1 equivalent of NaCl was added and the vial was left to stand without disturbance for 3 hours at room temperature. Meanwhile, as an attempt to form a hydrogel by lowering the pH, 2 equivalents of GdL were added to a high pH solution of 4 followed by gentle mixing. These vials were inverted and allowed to stand overnight to confirm the hydrogel formation. […]

Assay in data set [3]: as above
Conditions: for CGC: cationic peptides 15-19, triggers GdL, heat and NaCl (18, 19: heat and NaCl); for pH: hydrogels of cationic peptides 15-19. Format: physicochemical.
From the text: as §3, §4, §5
To create a high ionic strength environment, 1 equivalent of NaCl was added and the vial was left to stand without disturbance for 3 hours at room temperature. Meanwhile, as an attempt to form a hydrogel by lowering the pH, 2 equivalents of GdL were added to a high pH solution of 4 followed by gentle mixing. These vials were inverted and allowed to stand overnight to confirm the hydrogel formation.
The formation of hydrogel 4 via the solvent switch method was conducted by dissolving short peptide 4, in an aluminium covered glass vial, with either 50% methanol, ethanol, or dimethyl sulfoxide (DMSO). Respective amounts of Mili-Q water were added to make up concentrations of 1% w/v.
In addition, gelation time was defined as the time (hours) required for 1% w/v of short peptide 4 to form a hydrogel which can be turned upside down without collapsing.
Pre-weighed samples of short peptides 10a-17a, 18, and 19 were prepared in glass vials with 10 mm internal diameter, and Milli-Q water was added to make up concentrations of 1% w/v. The resulting suspensions of short peptides 13, 18, and 19 (as ammonium or guanidinium salts) were slowly warmed until all solid had completely dissolved. GdL (1.5 to 2.0 equivalents) was added to the suspension of short peptides 10a-17a, before heat was applied. To create a high ionic strength environment, 1-5 equivalents of NaCl was added to the viscous solution of 10a-17a to make the total volume up to 1 mL, followed by gentle mixing, and the vial was left to stand without disturbance for 3 hours at room temperature. Subsequently, these vials were inverted and allowed to stand overnight to confirm hydrogel formation.

Data set [4] is described as follows: Frequency sweep test (FST), rheometer. Format: physicochemical. The settings on record: hydrogels 15-19 at 1% w/v; for G′ (modulus storage) / G″ (modulus loss): FST fixed strain 0.1%. The method, then: The mechanical properties of anthranilamide-based cationic hydrogels were assessed using an Anton Paar MCR 302 rheometer with a 25 mm stainless parallel plate configuration.
as §1, §2
In the FST, samples were measured over a range of oscillation frequencies (0.1-10 rad/s) at fixed strain, temperature, and oscillation amplitude. Higher frequencies simulate fast motion on a short time-scale, while low frequencies simulate slow motion on a long time-scale, or rest. All of the hydrogels made from the anthranilamide-based short cationic peptides, which passed the vial inversion test, were subjected to the FST using a rheometer to precisely assess their mechanical properties.

Data set [5] is described as follows: Atomic force microscopy (AFM) of fibers. Conditions: hydrogel after addition of salt, 4× below CGC. In kind it is physicochemical. The method, then: Hydrogels of NO-releasing short peptide 4 (1 drop), at high pH, low pH, and after irradiation, were cast onto a mica substrate. Hydrogels of cationic short peptides 11-13 and 15-19 were prepared at their CGC, 2× below, and 4× below CGC in glass vials. Prior to gelation, one drop of the cationic short peptide solutions was cast onto a mica substrate. Using a glass slide, each droplet was carefully spread and was left to dry overnight before imaging. Imaging was performed using a Bruker Multimode 8 Atomic Force Microscope in Scanasyst Air (PeakForce Tappings) mode, which is based on tapping mode AFM. To prevent damage of soft samples, the imaging parameters were constantly optimized through the force curves that were collected. Bruker Scanasyst-Air probes were used, with a spring constant of 0.4-0.8 N·m^−1 and a tip radius of 2 nm.
To gain some insight on the mechanism of antibacterial action, the released solutions from hydrogel made of primary ammonium 11 were directly cast onto a mica substrate. […] After gently spreading using a glass slide and left to dry overnight, these samples were imaged using a similar manner as describe above.

As for `CN(C)CCCNC(=O)[C@H](Cc1ccccc1)NC(=O)c1ccc(Cl)cc1NC(=O)c1ccc2ccccc2c1` [Compound 16], the “LVER (linear viscoelastic region)” value in data set [1] is 1.66% and 1.66 ± 0.10%. The bacterial reduction in the data set on S. aureus 38 worked out at 5.0 Log10. The “Remarks (gel state)” value in data set [2] is recorded as “OG”. In data set [3], this molecule yielded a CGC of 0.2 % W/V and a pH of 5.5. Further, in data set [4], the “G′/G″ ratio” value is 10.6, the “G′ (modulus storage)” value was determined as 0.53 kPa and the “G″ (modulus loss)” value amounted to 0.05 kPa. In data set [5], the fiber bundle diameter turned out to be 99±6 nm.

Take `CN(C)CCCNC(=O)[C@H](Cc1ccccc1)NC(=O)c1ccc(F)cc1NC(=O)c1ccc2ccccc2c1` [Compound 15]: the “LVER (linear viscoelastic region)” value in data set [1] is 2.01% and 2.01 ± 0.06%. Moreover, the bacterial reduction with S. aureus 38 is on record as 3.1 Log10. The “Remarks (gel state)” value in data set [2] was “OG”. Besides, in data set [3], the CGC came to 0. % W/V and the pH came to 5.5. In data set [4], the “G′/G″ ratio” value is 20, the “G′ (modulus storage)” value came out at 1.20 kPa and the “G″ (modulus loss)” value stood at 0.06 kPa. Also, in data set [5], the fiber bundle diameter was 115±10 nm.
